Results published in article PMC8022858, “Discovery of bone morphogenetic protein 7-derived peptide sequences that attenuate the human osteoarthritic chondrocyte phenotype” (Molecular Therapy. Methods & Clinical Development, 2021).

System: HACs in OA synovial fluid (SF)
Assay: Peptide bioactivity on HACs cultured in OA synovial fluid (gene expression, sGAG, ALP activity, PGE2)
Format: cell-based, human
Conditions: 100 nM peptide, 20% (v/v) OA SF; for sGAG content of HAC cultures: 24 h (Figure 3D); for retainment of bioactivity on ALP activity in OA SF environment: 24 h (Figure 3E); for retainment of bioactivity on PGE2 secretion in OA SF environment: 24 h (Figure 3F); for expression of NKX3-2 / OA SF-induced expression of RUNX2, COL10A1, ALPL, MMP13, ADAMTS5, COX-2, and IL6 / OA SF-induced decline of SOX9 and COL2A1 expression: 24 h; for expression of NKX3-2: n = 3 donors (Figure 3A); for OA SF-induced expression of RUNX2, COL10A1, ALPL, MMP13, ADAMTS5, COX-2, and IL6: n = 3 donors (Figures 3B, 3C); for OA SF-induced decline of SOX9 and COL2A1 expression: n = 3 donors in triplicate (Figure 3A)
Excerpt: To further corroborate the potential OA-protective properties of peptides p[63−82] and p[113−132], we mimicked the OA environment by exposing non-OA-HACs to OA SF. Culturing non-OA-HACs in the presence of OA SF reduced their SOX9, COL2A1, and NKX3-2 expression (Figure 3A), whereas expression of RUNX2, COL10A1, ALPL, MMP13, ADAMTS5, COX-2, and IL6 was induced by OA SF (Figures 3B and 3C). This was accompanied by increased ALP activity and PGE2 secretion (Figures 3E and 3F). […] The OA SF-induced expression of RUNX2, COL10A1, ALPL, MMP13, ADAMTS5, COX-2, and IL6 was, without exception, mitigated by peptides p[63−82] and p[113−132] (Figures 3B and 3C). sGAG content of HAC cultures was unaltered by the peptides (Figure 3D). Retainment of peptide p[63−82] and p[113−132] bioactivity on HACs in an OA SF environment was also confirmed for ALP activity (Figure 3E) and PGE2 secretion (Figure 3F).
Figure 3 Bioactivity of peptides p[63−82] and p[113−132] on OA articular chondrocytes in OA synovial fluid (SF) […] (n = 3 individual donors, tested in triplicate) were exposed to 100 nM peptide p[63−82] or p[113−132] in the presence of OA SF (20% [v/v]; equal ratio mix from five individual donors). Control is 20% (v/v) 0.9% NaCl. Cells were cultured in these conditions for 24 h and analyzed for mRNA expression of indicated genes (normalized for 28S rRNA expression and relative to control condition). (A) Expression of SOX9, COL2A1, and NKX3-2 mRNAs. (B) Expression of RUNX2, COL10A1, and ALPL mRNAs. (C) Expression of MMP13, ADAMTS5, COX-2, and IL-6 mRNAs. (D) GAG content (normalized to total protein content) was determined in the same conditions. (E) ALP enzyme activity in cell lysates of the same conditions was determined and normalized for total protein content. (F) PGE2 levels in culture supernatants of the same conditions. Error bars represent mean ± SEM, and statistical significance for peptide conditions or control versus SF condition as determined by unpaired two-tailed Student’s t test is represented as ∗p < 0.05, ∗∗p < 0.01, and ∗∗∗p < 0.001.
Cartilage was obtained from total knee arthroplasty of end-stage (K&L grades 3−4) OA patients and from resected knee cartilage from cartilage repair procedures of non-OA patients. Medical ethical permission was received from the Maastricht University Medical Center Medical Ethical Committee (approval number 2017-0183). Chondrocytes were isolated using collagenase as described earlier.[27] The HACs were cultured until passage two in DMEM/F12 (Life Technologies), 10% fetal calf serum (FCS; Sigma-Aldrich), 1% antibiotic/antimycotic (Life Technologies), and 1% non-essential amino acids (Life Technologies) in a humidified atmosphere at 37°C, 5% CO2. SW1353 cells (ATCC HTB-94, short tandem repeat [STR] profiled)[54] were cultured in identical conditions. For experiments, cells were plated in technical triplicates at 30,000 cells/cm^2. BMP7 (R&D Systems) was used at 1 nM. OA SF was perioperatively collected from OA patients (same medical ethics statement [2017-0183] as for cartilage above) and was centrifuged to remove cells/debris. For experiments, an SF pool from five OA patients was prepared (equal volume ratios) and applied on cells in a 20% (v/v) concentration. For RNAi, scrambled and NKX3-2 siRNA duplexes (Table S1) were custom made (Eurogentec). Transfection (100 nM siRNA) in HACs was performed using HiPerFect (QIAGEN) according to the manufacturer’s protocol. The BRE reporter,[32] CAGA12 reporter,[33] or cytomegalovirus (CMV)-Gaussia as transfection control[55] were transfected (100 ng/μL) in SW1353 cells using FuGENE (Promega) according to the manufacturer’s protocol. […]

Substance: H-AAYYSEGESAFPLNSYMNAT-OH [p[63−82]]
- sGAG content of HAC cultures: unaltered
- retainment of bioactivity on ALP activity in OA SF environment: confirmed
- retainment of bioactivity on PGE2 secretion in OA SF environment: confirmed
- expression of NKX3-2: induced by the peptides to levels higher than in the control condition
- OA SF-induced expression of RUNX2, COL10A1, ALPL, MMP13, ADAMTS5, COX-2, and IL6: mitigated
- OA SF-induced decline of SOX9 and COL2A1 expression: counteracted to some extent

Substance: H-SVLYFDDSSNVILKKYRNMV-OH [p[113−132]]
- sGAG content of HAC cultures: unaltered
- retainment of bioactivity on ALP activity in OA SF environment: confirmed
- retainment of bioactivity on PGE2 secretion in OA SF environment: confirmed
- expression of NKX3-2: induced by the peptides to levels higher than in the control condition
- OA SF-induced expression of RUNX2, COL10A1, ALPL, MMP13, ADAMTS5, COX-2, and IL6: mitigated
- OA SF-induced decline of SOX9 and COL2A1 expression: counteracted to some extent
